The values that follow come from the METLIN SMRT retention time set (Domingo-Almenara et al. 2019).

This data set in a line: gradient 5% acetonitrile 3 min, to 50% in 2 min, to 85% in 15 min, held 3 min, 100 µL/min. As to conditions: column: Zorbax Extend-C18 2.1 x 50 mm; eluents: water / acetonitrile, 0.1% formic acid. The procedure, abridged: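 Pure standards were analyzed in mixtures of ~100 molecules using HPLC coupled to a quadrupole time-of-flight mass spectrometer, in both positive and negative ionization mode. Separation used a Zorbax Extend-C18 column (2.1 × 50 mm, 1.8 μm) at 100 μL/min, with water and acetonitrile each containing 0.1% formic acid. Dead and dwell volumes were 40 μL and 900 μL, and data were collected over 3 months. Retention time was read from computationally picked adduct peaks, each inspected manually.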
`COC(=O)Cn1c2ccc(F)cc2c2nc3ccccc3nc21` yielded an RP-LC retention time of 658 s.

For the compound `COc1ccc(N2CCN(S(=O)(=O)c3cc(-c4nnc(C5CC5)o4)co3)CC2)cc1`, the RP-LC retention time was found to be 909 s.

Compound `COC(=O)c1ccc(CSc2nnc(NC(=O)c3nc4ccccc4s3)s2)o1` gave an RP-LC retention time of 904 s.

`O=C(NCc1ccnc(N2CCCCCC2)c1)Nc1ccc2c(c1)OCO2` returned an RP-LC retention time of 622 s.

With `COc1ccc(-c2c(C(=O)Nc3ccc(C(C)=O)cc3)nc3ccccn23)cc1`, the RP-LC retention time amounted to 939 s.

Compound `O=C(C1=CN(c2ccc(F)c(F)c2)c2ccccc2S1(=O)=O)N1CCCCC1` showed an RP-LC retention time of 1040 s.

For the compound `CCCCN1CCN(C(=O)c2cc(-c3ccncc3)cn2Cc2ccc(C)cc2)CC1`, the RP-LC retention time stood at 582 s.

Turning to `O=C(Nc1ccc(F)cc1F)c1ccc(N2C(=O)CCC2=O)cc1`, the RP-LC retention time was 671 s.

Turning to `Cc1ccc(-c2nnc(SCc3noc(CCC(=O)Nc4ccc(F)c(Cl)c4)n3)o2)cc1`, the RP-LC retention time amounted to 1020 s.

For `CCCCN1C(=O)C(C)(C(=O)Nc2ccc(F)cc2F)Oc2cccnc21` (configuration not stated), the RP-LC retention time stood at 1050 s.

`Cc1[nH]c(C)c(S(=O)(=O)N2CCC(C(=O)NC3CCCC3)CC2)c1C(=O)N1CCCC1` displayed an RP-LC retention time of 659 s.

Turning to `CC(Cc1cccs1)NC(=O)c1cnccn1` (configuration not stated), the RP-LC retention time stood at 706 s.

Compound `Cn1c(CCNC(=O)c2cccc(C#N)c2)nc2cccnc21` yielded an RP-LC retention time of 601 s.

Take `Cc1ccc(CNC(=O)Cn2c(=O)cc(-c3nc(C(C)C)no3)c3ccccc32)cc1`: the RP-LC retention time stood at 1010 s.

Compound `O=C(NCc1nc(-c2ccc(NS(=O)(=O)c3ccccc3)cc2)no1)c1cccs1` registered an RP-LC retention time of 832 s.

Turning to `COC(=O)c1sc2cccc(F)c2c1S(=O)(=O)N1CCC(C(N)=O)(N2CCCCC2)CC1`, the RP-LC retention time worked out at 649 s.

In the case of `Cc1cc(F)ccc1NS(=O)(=O)c1cc(-c2[nH]ncc2C(=O)N2CCOCC2)oc1C`, the RP-LC retention time came out at 678 s.

For `CCCOc1nccnc1N1CCC(NC(=O)Cc2cccnc2)C1` (configuration not stated), the RP-LC retention time turned out to be 671 s.

Regarding `CCC(C)C(NC(=O)c1cc(C)cc(C)c1)C(=O)Nc1nc2ccccc2[nH]1` (configuration not stated), the RP-LC retention time turned out to be 799 s.

In turn, `O=C(Cc1cn2cc(Br)ccc2n1)N1CCSCC1` showed an RP-LC retention time of 570 s.

On to `COCCN1CCC2(CC1)CN(Cc1cc(OC)cc(OC)c1)Cc1ccccc1O2`, for which the RP-LC retention time amounted to 560 s.

`COc1cc(NC(=O)N2CCC(c3nc(C(=O)N(C)C)c(C)o3)CC2)cc(OC)c1` yielded an RP-LC retention time of 711 s.

`Cc1noc2ncnc(N3CCCC(C(=O)N4CCC(Cc5ccccc5)CC4)C3)c12` (configuration not stated) yielded an RP-LC retention time of 986 s.

The compound `CCc1nc(-c2cccc(-c3noc(CN4C(=O)COc5ccc(Cl)cc54)n3)c2)cs1` yielded an RP-LC retention time of 1240 s.

In the case of `Cc1ccc2c(NC(=O)C(c3ccccc3)c3ccccc3)noc2n1`, the RP-LC retention time worked out at 785 s.

Compound `CCC(C)NS(=O)(=O)c1cc(-c2nc(C)cs2)n(C)c1C` (configuration not stated) displayed an RP-LC retention time of 905 s.

For `Cc1ccc(C)c(S(=O)(=O)N2CCC(c3noc(-c4ccccc4C)n3)CC2)c1`, the RP-LC retention time worked out at 1270 s.

`Cc1nnc(C2CCCCCN2C(=O)c2ccoc2C)o1` (configuration not stated) showed an RP-LC retention time of 699 s.

On to `Cn1c(=O)sc2cc(S(=O)(=O)N3CCC(C(=O)NC4CCCCCC4)CC3)ccc21`, for which the RP-LC retention time stood at 896 s.

As to `Cc1cc2nn(CC(=O)N(C)c3ccccc3)c(=O)n2c(Nc2ccc(F)cc2)n1`, the RP-LC retention time worked out at 1010 s.

Turning to `COC(=O)c1ccc(Cl)cc1NC(=O)N1CCCn2nc(-c3ccncc3)cc2C1`, the RP-LC retention time worked out at 715 s.

The compound `COc1ccc(-c2cc(C(=O)Nc3cc(F)cc(F)c3)sn2)cc1` yielded an RP-LC retention time of 1200 s.
